Test results from PMC9929232, “On-demand male contraception via acute inhibition of soluble adenylyl cyclase” (Nature Communications, 2023).
“And” between values parts separate entries of the source, which are not always exact repeats. Identical values can stand only once.

How the values were obtained:
[1] = target: T1, immobilized human sAC protein (Homo sapiens, UniProt Q96PN6); experiment: Surface plasmon resonance binding kinetics;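 note: Reference-channel response subtracted from active-channel response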; conditions: Fig. 1e
T1 construct: recombinant purified His-tagged sACt protein (50 μg/ml)
T1 sequence (Q96PN6 1-469 limits assumed): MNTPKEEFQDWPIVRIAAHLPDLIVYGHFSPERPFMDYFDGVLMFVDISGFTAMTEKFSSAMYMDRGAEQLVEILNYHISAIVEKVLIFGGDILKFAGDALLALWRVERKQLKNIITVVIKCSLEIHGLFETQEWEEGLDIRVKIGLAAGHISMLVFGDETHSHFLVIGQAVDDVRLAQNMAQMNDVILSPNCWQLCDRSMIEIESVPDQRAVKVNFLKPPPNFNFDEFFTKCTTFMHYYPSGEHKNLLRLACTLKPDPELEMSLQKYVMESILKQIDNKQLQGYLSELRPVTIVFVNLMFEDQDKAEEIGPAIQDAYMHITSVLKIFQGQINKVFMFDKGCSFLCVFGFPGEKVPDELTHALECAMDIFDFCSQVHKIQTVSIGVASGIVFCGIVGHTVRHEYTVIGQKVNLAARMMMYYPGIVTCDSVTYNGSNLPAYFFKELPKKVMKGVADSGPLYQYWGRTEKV
Description: Association and dissociation rate constants of sAC inhibitors were obtained with a Biacore 8K instrument (Cytiva) using a parallel kinetics protocol. Series S Sensor NTA chips (Cytiva) were prepared by applying recombinant purified His-tagged sACt protein (50 μg/ml) in PBS-P+ buffer (1 mM KH2PO4, 150 mM NaCl, 6 mM Na2HPO4, 0.05% (w/v) P20 Surfactant). The His-tagged sAC protein was captured via Ni^2+-His-tag chelation and covalently immobilized by amine coupling with a 1:1 mixture of 1-ethyl-3-(3-dimethylaminopropyl) carbodiimide and N-hydroxysuccinimide (active channels). After coupling, remaining reactive groups on the chip’s surface were blocked with 1 M ethanolamine followed by 350 mM EDTA to wash away any free Ni^2+. Following preparation, TBS-P+ running buffer (50 mM Tris, 150 mM NaCl, and 0.05% P20 Surfactant) supplemented with 1% DMSO was flowed over the surface of the chip until a stable baseline was obtained. For each sAC inhibitor, which were dissolved in DMSO and diluted in running buffer, increasing concentrations were injected into parallel channels for 120 s at a flow rate of 50 µl/min followed by running buffer for 600 s to allow for dissociation. All experiments included reference channels; i.e., inhibitor run over parallel channels without immobilized protein. […] Curves were fitted, and kon, KD, and koff values were determined using the Biacore 8K Insight Evaluation Software Version 2.0 (Cytiva) and a 1:1 binding kinetics model.

[2] = test system: human sperm; experiment: cAMP generation in human sperm in vitro, incl. wash-out by dilution; type: cell-based; conditions: 30 minutes
Description: Samples of human semen were obtained from healthy volunteers with their prior written consent following a protocol approved by Weill Cornell Medicine’s Institutional Review Board (IRB 21-03023495). […] Semen was incubated for 30 min in a 37 °C incubator to liquefy. […] The tubes were incubated at a tilted angle of 45° at 37 °C for 60 min. Motile sperm were allowed to swim up into the HTF layer; immotile sperm and other cells or tissue debris remain in the ejaculate fraction. Up to 3 ml of the HTF layer was transferred to a fresh tube and washed twice in HTF by centrifugation (700 × g, 20 min). The supernatant was removed after the last centrifugation step and the sperm pellet was resuspended in 1 ml HTF. The purity and vitality of each sample was assessed via light microscopy. Sperm cell numbers were determined using a hemocytometer and adjusted to a concentration of 1 × 10^7 cells/ml.

[3] = test system: mouse sperm; experiment: Flagellar beat frequency of tethered mouse sperm; type: cell-based
Description: An inverted dark-field video microscope (IX73; Olympus) with a 10 x objective (mouse sperm) or a 20 x objective (human sperm) (UPLSAPO, NA 0.8; Olympus) was combined with a high-speed camera (ORCA Fusion; Hamamatsu). Dark-field videos were recorded with a frame rate of 200 Hz. The temperature of the heated stage was set to 37 °C (stage top incubator WSKMX; TOKAI HIT). The images were preprocessed with the ImageJ plugin SpermQ Preparator (Gaussian blur with sigma 0.5 px; subtract background method with radius 5 px) and analyzed using the ImageJ plugin SpermQ[57]. The beat frequency was determined from the highest peak in the frequency spectrum of the curvature time course, obtained by Fast Fourier Transform.

[4] = test system: mouse sperm; experiment: cAMP generation in mouse sperm in vitro, incl. wash-out by dilution; conditions: 12 minutes
Description: For capacitation, sperm were incubated for 90 min in TYH containing 3 mg/ml BSA and 25 mM NaHCO3 in a 37 °C incubator. To control for the consequences of dilution during isolation of epididymal mouse sperm for ex vivo assays, we assessed the ability of bicarbonate to induce a prototypical pattern of tyrosine phosphorylation (pY) which is a widely used molecular hallmark of capacitation[53]. Bicarbonate-induced pY is known to be sAC dependent in vitro[20],[22],[35]. For experiments studying sperm from injected mice, ‘swim out’ was performed in 200 μl TYH, which corresponded to a 1:10 dilution from epididymis (20 μg cauda in 200 μl buffer). Capacitation-induced changes were assessed by adding 50 µl of ‘swim out’ sperm to increasing volumes of capacitating TYH buffer.
cAMP generation was measured in mouse and human sperm. […] For human sperm, aliquots of 2 × 10^6 cells were incubated for 30 min in the presence or absence of sAC inhibitor in non-capacitating or capacitating HTF buffer. In both cases, 0.1% DMSO was used as vehicle control.
After 5 min, 150 µl of sperm/inhibitor mix was diluted into 1.35 ml non-capacitating or capacitating media with no inhibitor. […] Sperm lysates were centrifuged at 2000 × g for 3 min and the cAMP in the supernatant was acetylated and quantified using the Direct cAMP ELISA kit (Enzo).

[5] = test system: epididymal mouse sperm; experiment: Tyrosine phosphorylation (pY) Western blot of sperm from injected mice; conditions: for capacitation-induced pY pattern: 50 mg/kg i.p., 1 hour
Description: (§1) For capacitation, sperm were incubated for 90 min in TYH containing 3 mg/ml BSA and 25 mM NaHCO3 in a 37 °C incubator. To control for the consequences of dilution during isolation of epididymal mouse sperm for ex vivo assays, we assessed the ability of bicarbonate to induce a prototypical pattern of tyrosine phosphorylation (pY) which is a widely used molecular hallmark of capacitation[53]. […] For experiments studying sperm from injected mice, ‘swim out’ was performed in 200 μl TYH, which corresponded to a 1:10 dilution from epididymis (20 μg cauda in 200 μl buffer). Capacitation-induced changes were assessed by adding 50 µl of ‘swim out’ sperm to increasing volumes of capacitating TYH buffer.
Mouse sperm from vehicle- or inhibitor-injected mice were isolated 1 hour post injection from male mice injected (i.p.) with 150 µl of solution containing sAC inhibitor or vehicle. ‘Swim out’ sperm were diluted 1:1 to 1:100 in capacitating TYH media. As control, sperm from vehicle-injected mice were diluted 1:100 in non-capacitating and capacitating TYH buffer. The samples were incubated for 90 min, washed with 1 ml PBS and sedimented by centrifugation at 2000 × g for 3 min. The sedimented sperm were resuspended in 15 μl 2× Laemmli sample buffer, heated for 5 min at 95 °C, supplemented with 8 µl β-mercaptoethanol and heated again for 5 min at 95 °C. For Western blot analysis, proteins were transferred onto PVDF membranes (Thermo Scientific), probed with anti-phosphotyrosine (1:1000, clone 4G10, Merck Millipore) and anti-mouse IgG (1:10,000, Cell Signaling Technology) antibodies, and analyzed using a chemiluminescence detection system. Image lab (Bio-Rad) was used for densitometric analysis of western blots.

[6] = test system: epididymal mouse sperm; experiment: Ex vivo cAMP generation in epididymal sperm from inhibitor-treated male mice (oral or i.p.)
Description: as §1
Intracellular cAMP levels were quantified using the Direct cAMP ELISA kit (Enzo) as above.

[7] = sheet Fig. 2c replicates, 5 μM TDI-10229 or 10 nM TDI-11861 present
[8] = sheet Fig. 2d replicates, 5 min preincubation in 5 μM TDI-10229 or 10 nM TDI-11861, diluted 1:100 into inhibitor-free media
[9] = sheet Fig. 2a replicates, 5 μM TDI-10229 or 10 nM TDI-11861 present
[10] = sheet Fig. 2b replicates, 5 min preincubation in 5 μM TDI-10229 or 10 nM TDI-11861, diluted 1:100 into inhibitor-free media

Cc1c(Cc2ccccc2)c(-c2cc(Cl)nc(N)n2)nn1C [TDI-10229, reference compound]
SPR sensorgram response ([1]; 2.3 nM, Time 1.8 s): -0.005 | SPR sensorgram response ([1]; 2.3 nM, Time 1.9 s): -0.0004 | SPR sensorgram response ([1]; 2.3 nM, Time 2 s): 1.724e-7 | SPR sensorgram response ([1]; 7 nM, Time 1.8 s): 0.0365 | SPR sensorgram response ([1]; 7 nM, Time 1.9 s): 0.0954 | SPR sensorgram response ([1]; 7 nM, Time 2 s): 0.1127 | SPR sensorgram response ([1]; 21 nM, Time 1.8 s): 0.0362 | SPR sensorgram response ([1]; 21 nM, Time 1.9 s): 0.0362 | SPR sensorgram response ([1]; 21 nM, Time 2 s): 0.0493 | SPR sensorgram response ([1]; 62 nM, Time 1.8 s): 0.4405 | SPR sensorgram response ([1]; 62 nM, Time 1.9 s): 0.5261 | SPR sensorgram response ([1]; 62 nM, Time 2 s): 0.5966 | SPR sensorgram response ([1]; 185 nM, Time 1.8 s): 1.6528 | SPR sensorgram response ([1]; 185 nM, Time 1.9 s): 1.8027 | SPR sensorgram response ([1]; 185 nM, Time 2 s): 1.949 | SPR sensorgram response ([1]; 555 nM, Time 1.8 s): 3.219 | SPR sensorgram response ([1]; 555 nM, Time 1.9 s): 3.5189 | SPR sensorgram response ([1]; 555 nM, Time 2 s): 3.8049 | SPR sensorgram response ([1]; 1670 nM, Time 1.8 s): 10.7814 | SPR sensorgram response ([1]; 1670 nM, Time 1.9 s): 11.5936 | SPR sensorgram response ([1]; 1670 nM, Time 2 s): 12.3892 | cAMP, capacitation media [2, 7]: 0.877 pmol/10^6 sperm and 0.67 pmol/10^6 sperm and 0.652 pmol/10^6 sperm and 0.78 pmol/10^6 sperm and 1.141 pmol/10^6 sperm and 0.8484 pmol/10^6 sperm and 1.0045 pmol/10^6 sperm | cAMP, non-capacitation media [2, 7]: 0.136 pmol/10^6 sperm and 0.12 pmol/10^6 sperm and 0.2 pmol/10^6 sperm and 0.75 pmol/10^6 sperm and 0.55 pmol/10^6 sperm and 0.7798 pmol/10^6 sperm and 0.493 pmol/10^6 sperm | cAMP, capacitation media [2, 8]: 1.0484 pmol/10^6 sperm and 0.9036 pmol/10^6 sperm and 1.37 pmol/10^6 sperm and 1.1895 pmol/10^6 sperm and 1.866 pmol/10^6 sperm | cAMP, non-capacitation media [2, 8]: 0.7172 pmol/10^6 sperm and 0.3596 pmol/10^6 sperm and 1.05 pmol/10^6 sperm and 0.7885 pmol/10^6 sperm and 1.206 pmol/10^6 sperm | Beat frequency, Basal ([3]; distal 10 μm of flagellum, 5 μM TDI-10229 or 10 nM TDI-11861, mean ± SEM): 10.4 ± 0.8 Hz | Beat frequency, + HCO3- ([3]; distal 10 μm, 25 mM NaHCO3, 5 μM TDI-10229 or 10 nM TDI-11861, mean ± SEM): 11.7 ± 1.8 Hz | cAMP, capacitation media [4, 9]: 0.708 pmol/10^6 sperm and 0.223 pmol/10^6 sperm and 0.8377 pmol/10^6 sperm and 0.328 pmol/10^6 sperm and 0.317 pmol/10^6 sperm and 0.164 pmol/10^6 sperm and 0.248 pmol/10^6 sperm and 0.209 pmol/10^6 sperm and 0.814 pmol/10^6 sperm and 0.028 pmol/10^6 sperm | cAMP, non-capacitation media [4, 9]: 0.791 pmol/10^6 sperm and 0.172 pmol/10^6 sperm and 0.69 pmol/10^6 sperm and 0.464 pmol/10^6 sperm and 0.354 pmol/10^6 sperm and 0.286 pmol/10^6 sperm and 0.57 pmol/10^6 sperm and 0.578 pmol/10^6 sperm and 1.32 pmol/10^6 sperm and 0.473 pmol/10^6 sperm | cAMP, capacitation media [4, 10]: 0.7514 pmol/10^6 sperm and 0.838 pmol/10^6 sperm and 0.907 pmol/10^6 sperm and 0.4366 pmol/10^6 sperm and 0.08556 pmol/10^6 sperm and 0.441 pmol/10^6 sperm and 0.751 pmol/10^6 sperm and 1.195 pmol/10^6 sperm | cAMP, non-capacitation media [4, 10]: 0.7446 pmol/10^6 sperm and 0.94 pmol/10^6 sperm and 1.147 pmol/10^6 sperm and 0.8426 pmol/10^6 sperm and 0.7363 pmol/10^6 sperm and 0.601 pmol/10^6 sperm and 0.752 pmol/10^6 sperm and 1.525 pmol/10^6 sperm | capacitation-induced pY pattern ([5]; diluted 25 fold): restored | capacitation-induced pY pattern ([5]; swim out sperm mixed with equal volume capacitation media): blocked | normalized pY ([5]; Fig. S1f, 1:1 capacitating media): 1.44 and 0.9739 and 0.9492 and 1.269 and 0.7377 and 0.8308 and 0.9909 and 0.9583 | normalized pY ([5]; Fig. S1f, 1:5 capacitating media): 1.231 and 0.8896 and 0.8967 and 1.293 and 1.015 and 0.7938 and 1.073 and 0.7598 | normalized pY ([5]; Fig. S1f, 1:10 capacitating media): 1.238 and 0.8061 and 0.8834 and 1.18 and 1.244 and 0.7753 and 1.106 and 0.8286 | normalized pY ([5]; Fig. S1d, 1:1 capacitating media): 1.323 and 2.451 and 1.717 and 1.956 | normalized pY ([5]; Fig. S1d, 1:5 capacitating media): 1.566 and 2.38 and 1.568 and 1.6103 | normalized pY ([5]; Fig. S1d, 1:10 capacitating media): 1.95 and 2.076 and 2.342 and 1.601 | normalized pY ([5]; Fig. S1d, 1:25 capacitating media): 1.653 and 2.642 and 2.388 | normalized pY ([5]; Fig. S1d, 1:50 capacitating media): 1.946 and 2.557 and 2.122 and 1.827 | normalized pY ([5]; Fig. S1d, 1:100 capacitating media): 1.953 and 2.689 and 1.737 and 1.751 | bicarbonate-induced cAMP response, sperm directly isolated ([6]; 50 mg/kg i.p.): prevented bicarbonate-induced increase in cAMP | bicarbonate-induced cAMP response, sperm measured directly ([6]; 50 mg/kg oral, 1 hour, cauda sperm): no bicarbonate-induced increase in cAMP | normalized cAMP, diluted ([6]; Fig. 3a replicates, 50 mg/kg oral gavage, 100-fold dilution into inhibitor-free media, capacitating relative to non-capacitated, 50 mg/kg): 2.085 and 1.745 and 2.432 and 2.093 and 1.3062 and 3.591 and 2.931 and 3.583 | normalized cAMP, non-diluted ([6]; Fig. 3a replicates, 50 mg/kg oral gavage, capacitating relative to non-capacitated sperm of same mouse, 12 minutes, 50 mg/kg): 1.449 and 1.743 and 0.3 and 0.7791 and 0.9239 and 0.4534 and 0.1485 and 0.05415 | normalize cAMP, diluted ([6]; Fig. 3c replicates, 50 mg/kg i.p., 100-fold dilution into inhibitor-free media, capacitating relative to non-capacitated, 50 mg/kg): 1.94 and 1.936 and 3.937 and 2.155 and 1.983 and 3.104 and 1.124 and 4 and 3.176 and 2.922 and 1.239 | normalize cAMP, non-diluted ([6]; Fig. 3c replicates, 50 mg/kg i.p., capacitating relative to non-capacitated sperm of same mouse, 12 minutes, 50 mg/kg): 0.2801 and 0.5834 and 0.6474 and 0.2247 and 1.279 and 0.9423 and 1.0897 and 0.542 and 0.3506 and 1.1072 and 1.1267
